Laboratory results taken from ChEMBL document CHEMBL1201862, “PubChem BioAssay data set” (2004).
Active and inactive are the calls of the source.

Key:
[1] = molecular target: Sphingosine 1-phosphate receptor 2 (Homo sapiens, UniProt O95136); assay: Dose Response Cell Based Assay for Agonists of the S1P2 Receptor. [Related pubchem assays: 729, 736, 843 ]; assay type: functional
[2] = A cytotoxicity screen of small molecule inhibitors of the PhoP region in Salmonella typhi identified in the primary screen. [Related pubchem assays: 1850, 1864, 1985 ]; assay type: functional
[3] = molecular target: Glutathione-S-transferase (Schistosoma japonicum, UniProt Q26513); assay: GST-antibody interaction or FRET quenching – biochemical, TR-FRET, artefact control for Vif-APOBEC3G degradation inhibitor project, dose response (AID 1117362); assay type: functional
Transthyretin = Transthyretin (Homo sapiens, UniProt P02766); assay: Luminescence-based cell-based high throughput dose response assay to identify activators of Transthyretin (TTR) transcription.; assay type: functional
[4] = molecular target: E3 ubiquitin-protein ligase Mdm2 (Homo sapiens, UniProt Q00987); assay: MDM2-luc reporter signal enhancers, multi-concentration potency testing, MDM2 ubiquitin-protein ligase inhibitor program, whole-cell format, luminescence detection, 384-well microplate (AID 1394); assay type: functional;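 also: MDM2 E3 inhibitors raise luminescence so EC50 is for signal enhancement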
[5] = molecular target: T1, Tyrosine-protein phosphatase non-receptor type 7 (Homo sapiens, UniProt P35236); assay: HePTP tyrosine phosphatase activity blockers – biochemical, absorbance, leukemia target, primary screen (AID 521); assay type: functional
T1 sequence (P35236 whole entry): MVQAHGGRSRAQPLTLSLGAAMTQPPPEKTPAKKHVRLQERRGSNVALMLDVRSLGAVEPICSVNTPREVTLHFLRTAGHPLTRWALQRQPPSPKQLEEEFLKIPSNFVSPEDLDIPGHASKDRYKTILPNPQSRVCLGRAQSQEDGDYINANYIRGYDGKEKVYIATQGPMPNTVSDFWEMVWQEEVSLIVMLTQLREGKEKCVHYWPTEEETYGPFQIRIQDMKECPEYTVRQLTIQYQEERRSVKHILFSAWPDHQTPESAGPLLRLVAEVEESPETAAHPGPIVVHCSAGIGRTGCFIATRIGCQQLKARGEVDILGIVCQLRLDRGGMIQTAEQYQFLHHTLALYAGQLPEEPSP

[6] = molecular target: Mitogen-activated protein kinase 10 (Homo sapiens, UniProt P53779); assay: Dose response biochemical screening assay for inhibitors of c-Jun N-Terminal Kinase 3 (JNK3). [Related pubchem assays: 746 ]
cells [7] = assay: cells
Major prion protein = Major prion protein (Homo sapiens, UniProt P04156); assay type: functional, cell-based
Vero = assay: Vero cell viability after compound exposure – synthesized analogs, set II, cytotoxicity control for West Nile virus antiviral project, SAR follow-up (AID 2402); assay type: functional; settings: Chlorocebus sabaeus
[8] = molecular target: Oxysterols receptor LXR-beta (Homo sapiens, UniProt P55055); assay: LXR agonists, Gal4 luciferase reporter, dose response, counter-screen for ssDAF-12 agonist project, cell-based, luminescence, HEK293, S. stercoralis campaign (AID 720737); assay type: functional; settings: read-out: IC50 (the source's name)
[9] = Luminescence-based cell-based high throughput dose response assay to identify activators of the DAF-12 from the parasite S. stercoralis (ssDAF-12).; assay type: functional
[10] = molecular target: Neuropeptide Y receptor type 2 (Homo sapiens, UniProt P49146); assay: IC50 for human NPY-Y2 blockade – cell-based, counter-screen for NPY-Y1 antagonist project, dose response (AID 1278); assay type: functional
cells [11] = assay type: functional, cell-based; settings: HEK-CNG
[12] = molecular target: Neuropeptide Y receptor type 1 (Homo sapiens, UniProt P25929); assay: IC50 of human NPY-Y1 blockers – cell-based, dose response (AID 1277); assay type: functional
[13] = molecular target: T2, Short transient receptor potential channel 4 (Mus musculus, UniProt Q9QUQ5); assay: calcium entry via TRPC4 opening agents – cell-based, HEK293 TRPC4/mu-opioid, Fluo-4 calcium, dose response (AID 434937); assay type: functional
T2 sequence (Q9QUQ5 whole entry): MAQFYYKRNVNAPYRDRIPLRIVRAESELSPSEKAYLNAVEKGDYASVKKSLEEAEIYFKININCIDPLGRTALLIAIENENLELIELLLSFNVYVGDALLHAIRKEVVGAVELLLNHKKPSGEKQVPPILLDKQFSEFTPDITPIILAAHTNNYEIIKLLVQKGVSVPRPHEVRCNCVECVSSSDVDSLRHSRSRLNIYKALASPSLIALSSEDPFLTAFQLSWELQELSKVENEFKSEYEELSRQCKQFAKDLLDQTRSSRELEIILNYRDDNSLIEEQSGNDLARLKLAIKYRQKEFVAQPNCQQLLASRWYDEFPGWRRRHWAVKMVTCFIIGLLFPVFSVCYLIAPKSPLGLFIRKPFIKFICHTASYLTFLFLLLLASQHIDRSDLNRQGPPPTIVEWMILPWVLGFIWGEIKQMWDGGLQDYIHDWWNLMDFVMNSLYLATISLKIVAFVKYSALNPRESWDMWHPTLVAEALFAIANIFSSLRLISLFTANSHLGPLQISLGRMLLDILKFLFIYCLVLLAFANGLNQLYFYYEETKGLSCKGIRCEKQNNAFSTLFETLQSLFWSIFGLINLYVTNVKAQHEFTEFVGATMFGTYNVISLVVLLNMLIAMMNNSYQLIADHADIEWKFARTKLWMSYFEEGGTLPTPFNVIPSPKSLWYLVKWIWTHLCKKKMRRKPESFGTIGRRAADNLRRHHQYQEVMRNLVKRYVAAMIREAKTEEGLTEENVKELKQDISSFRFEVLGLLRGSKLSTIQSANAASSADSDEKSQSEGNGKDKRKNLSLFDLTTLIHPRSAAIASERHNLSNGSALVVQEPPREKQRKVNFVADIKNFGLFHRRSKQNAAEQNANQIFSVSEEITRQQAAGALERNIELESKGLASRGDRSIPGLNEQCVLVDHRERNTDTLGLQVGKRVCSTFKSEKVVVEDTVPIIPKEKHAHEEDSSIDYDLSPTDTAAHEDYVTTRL

Galanin receptor type 3 = Galanin receptor type 3 (Homo sapiens, UniProt O60755); assay: Fluorescence-based cell-based primary high throughput dose response assay to identify antagonists of the Galanin Receptor 3 (GalR3).; assay type: functional

In the case of Cc1cc(Br)ccc1OCCCCNCCO, the EC50 [1] is reported as > 50 µM (not active) and the EC50 [2] is reported as > 50 µM (active).
With O=C(O)C1Cc2ccccc2N2CCCC12 (configuration not stated) the IC50 [3] was 16.3 µM (active).
With O=C(O)c1ccc(CSc2nnc(Cc3ccccc3)o2)cc1 the EC50 (Transthyretin) was > 167 µM (inactive).
With CN1C(C(=O)NCc2cccc(Br)c2)CC2Cn3c(nc4cc5ccccc5cc43)C21 (configuration not stated) the EC50 [4] was 11.1 µM (not active).
In the case of COc1ccccc1C(=O)Nc1ccccc1C(=O)N1CCCC1, the IC50 [5] is reported as > 100 µM (not active).
For O=C(O)CSc1ccc2ccccc2n1, the IC50 [6] was > 93.1 µM (not active), the IC50 (cells [7]) was > 138 µM (inactive) and the IC50 (Major prion protein) was 6.89 µM (active).
For COc1ccc(-c2csc(N(C)C(=O)c3ccccc3Cl)n2)cc1, the CC50 (Vero) was > 50 µM (active).
With c1ccc(SCc2nc3ccccc3s2)nc1 the EC50 [8] was > 67.5 µM (inactive) and the IC50 [9] was > 67.5 µM (inactive).
With CC(=O)OCC[N+](C)(C)C the IC50 [10] was > 35 µM (not active), the EC50 (cells [11]) was > 29.9 µM (inactive) and the IC50 [12] was > 35 µM (not active). For the same compound, the EC50 [13] was 0.0667 µM (active) and the IC50 (Galanin receptor type 3) was 1.66 µM (active).
